In the METLIN SMRT retention time set (Domingo-Almenara et al. 2019):

Assay: gradient 5% acetonitrile 3 min, to 50% in 2 min, to 85% in 15 min, held 3 min, 100 µL/min
Details: column: Zorbax Extend-C18 2.1 x 50 mm; eluents: water / acetonitrile, 0.1% formic acid
Outline: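 Each retention time is based on an adduct peak selected computationally and verified by manual inspection. Measurements used HPLC–quadrupole time-of-flight mass spectrometry in positive and negative ionization mode on mixtures of ~100 pure standards. Chromatography ran on a Zorbax Extend-C18 column (2.1 × 50 mm, 1.8 μm) at 100 μL/min with water and acetonitrile, each containing 0.1% formic acid, and dead and dwell volumes of 40 μL and 900 μL.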

| Structure (SMILES) | RP-LC retention time [s] |
| --- | --- |
| Cn1c(NC(=O)c2ccc(Cl)cc2)cc(=O)n(C)c1=O | 660 |
| CN(C(=O)c1cc(-c2cccs2)n(C2CCS(=O)(=O)C2)n1)C1CCS(=O)(=O)C1 (configuration not stated) | 662 |
| O=C(Cn1nc2c(N3CCCCCC3)nccn2c1=O)Nc1ccc(F)cc1F | 705 |
| CC(=O)Nc1ccc(C2(C(=O)NCc3cccs3)CCC2)cc1 | 710 |
| COCC1CN(C(=O)c2ccco2)CCC1(F)F (configuration not stated) | 759 |
| CCCN1C(=O)COc2ccc(-c3csc(NC(=O)C4CCCCC4)n3)cc21 | 1100 |
| O=c1ccc(-c2nc(-c3cccc(Cl)c3)no2)cn1Cc1ccncc1 | 722 |
| Cc1cc(-c2nn3c(COc4ccccc4)nnc3s2)no1 | 855 |
| COc1ccc(OCc2nnc3sc(-c4ccc5c(c4)OCCO5)nn23)cc1 | 906 |
| COc1ccc(-c2noc(C(C)NC(C)=O)n2)cc1 (configuration not stated) | 680 |
| Cc1ccc(-n2nc3c(=O)n(CC(=O)NC4CCCC4)nc(C)c3c2C)cc1 | 795 |
| CC(C)c1nnc2n1CCN(C(=O)c1cc(-c3cccs3)[nH]n1)C2 | 628 |
| O=C(CC1CCN(C(=O)c2ccc3nc(-c4ccccc4)oc3c2)CC1)NC1CC1 | 730 |
| CCOC(=O)C1CCCN(C(=O)c2ccc(-c3csc(CC)n3)cc2)C1 (configuration not stated) | 925 |
| COc1cccc(NC(=O)Cn2nc3cc(C)nc(Nc4ccc(C)c(F)c4)n3c2=O)c1 | 1100 |
| CN(C(=O)c1cc2c(=O)oc3ccccc3c2n1C)c1ccccc1F | 1060 |
| O=C(COc1ccccc1)N1CCCCC1c1nncn1CC1CC1 (configuration not stated) | 731 |
| CCCCN(C)c1nc(-c2ccc([N+](=O)[O-])cc2)nc2ccccc12 | 883 |
| Cc1ccc(CN2CCN(CC(=O)NCCCc3ccccc3)C(=O)C2=O)cc1 | 794 |
| Cc1c(O)cnc2nn(-c3ccccc3)c(=N)n12 | 822 |
| Cn1ncc2c3ccccc3n(CCCC(=O)NCc3ccco3)c2c1=O | 787 |
| CC(C)(C)c1ccccc1OCC(=O)Nc1nc(-c2ccccc2)cs1 | 1320 |
| CC(C)CN(CC1CCCO1)C(=O)CN1CC2=C(C1=O)C(c1ccccc1Cl)NC(=O)N2C (configuration not stated) | 999 |

| Structure (SMILES) | RP-LC retention time [s] |
| --- | --- |
| COc1ccc(S(=O)(=O)N2CCC(C(=O)Nc3nccs3)CC2)cc1 | 720 |
| COc1cccc(CNC(=O)C2CCCN(c3nnc4ccc(Cl)cn34)C2)c1OC (configuration not stated) | 754 |
| COc1ccc(Br)c(C(=O)NCC#CCN(C(C)C)C(C)C)c1 | 567 |
| CCC(C)C(NC(=O)c1cc(OC)c(OC)c(OC)c1)C(=O)Nc1nc2ccccc2[nH]1 (configuration not stated) | 725 |
| Cc1nc2ccc(C(=O)N(C)C)cc2nc1C | 618 |
| COCCCn1cc(C(=O)N2CCc3ccccc3C2)c2nn(-c3ccccc3)c(=O)c-2c1 | 770 |
| CC(C)C(=O)Nc1ccc(N2CCN(CC(=O)N3CCCC3)CC2)cc1C(=O)O | 587 |
| CC(C)NC(=O)c1ccc(OCC2CCCN(C(=O)c3ccc(N(C)C)cc3)C2)cc1 (configuration not stated) | 818 |
| Brc1cccc(-c2nc3ccccn3c2Nc2ccc3c(c2)OCO3)c1 | 726 |
| O=C(Nc1cnc(N2CCCCC2)nc1)c1ccc(Cl)s1 | 1020 |
| Cc1cc(C(=O)NCc2ccccc2F)nc2cc(-c3cccs3)nn12 | 1120 |
| CS(=O)(=O)N1CCCc2cc(C(=O)N3CCCCCC3)ccc21 | 800 |
| CC(=O)N1c2ccc(S(=O)(=O)N3CCCCC3)cc2CC1C(=O)NCCN1CCCCC1 (configuration not stated) | 626 |
| CCCN(C(=O)c1cccc(F)c1)c1nc(-c2ccccc2)cs1 | 1310 |
| O=S(=O)(c1cccc(-c2nc(-c3ccccc3)no2)c1)N1CCN(C2CCCCC2)CC1 | 840 |
| O=C(C1=CN(c2ccc3c(c2)OCCO3)c2ccccc2S1(=O)=O)N1CCOCC1 | 730 |
| C=CCn1nc2ccc(S(=O)(=O)N3CCCC3)cn2c1=O | 706 |
| Cc1ccc(C)c(NC(=O)C2CCN(S(=O)(=O)c3cn(C(C)C)cn3)CC2)c1 | 767 |
| N#CCn1cccc1-c1nc(-c2ccncc2)no1 | 685 |
| O=C(NC1CC1)c1ccc2ccnc(N3CCN(c4ccc(F)cc4)CC3)c2c1 | 688 |
| Cc1ccc(CNC(=O)N2CC=C(c3cn(C)c4ncccc34)CC2)cc1 | 818 |
| CCN1CCN(C(=S)Nc2ccc3nc(N4CCN(CC)CC4)cc(C)c3c2)CC1 | 519 |
| CCOC(=O)C1CCCN(C(=O)C2CCc3nc(N(CC)CC)ncc3C2)C1 (configuration not stated) | 620 |

| Structure (SMILES) | RP-LC retention time [s] |
| --- | --- |
| COc1cccc(N2CCCn3c2nc2c3c(=O)n(CC(=O)O)c(=O)n2C)c1 | 671 |
| COCc1noc(C2CN(C(=O)c3ocnc3C)CC23CCCC3)n1 (configuration not stated) | 733 |
| CN1CCCc2cc(C(=O)N3CCC4(CC3)OCCO4)sc21 | 796 |
| COc1cccc(NC(=O)N(Cc2nnc3n2CCCCC3)c2cccc(OC)c2)c1 | 718 |
| COc1ccc(-c2noc(-c3nn(-c4ccc(Cl)cc4)ccc3=O)n2)cc1 | 877 |
| Cc1nc(-c2csc(S(=O)(=O)N3CCCC(C(=O)Nc4ccc(Cl)cc4C)C3)c2)no1 (configuration not stated) | 1040 |
| COc1ccc(NS(=O)(=O)c2cc3c(s2)CCN(C(=O)C2CCC2)C3)cc1 | 831 |
| C[C@@H]1COCCN1c1cc(C2(S(C)(=O)=O)CC2)nc(-c2cccc3[nH]ccc23)n1 | 775 |
| Cc1nc(-c2csc(S(=O)(=O)N3CCC(C(=O)N4CCCCCC4)CC3)c2)no1 | 859 |
| CC1=C(c2ccc(F)cc2)S(=O)(=O)N=C1N1CCCN(C(=O)NC2CCCCC2)CC1 | 845 |
| Cc1ccc(Nc2c(-c3ccc(C)cc3)nc3ccccn23)cc1 | 741 |
| COc1cccc(CNC(=O)C2CCN(c3cc(N4CCOCC4)ncn3)CC2)c1 | 616 |
| COC(=O)c1sc2ccc(NC(=O)C3CCN(S(=O)(=O)c4cccs4)CC3)cc2c1OC | 988 |
| Cc1cc(N2CCN(C(=O)c3cccc(C(F)(F)F)c3)CC2)nc2nnc(C)n12 | 649 |
| CCNC(=O)c1cnn(-c2ccc(-c3nc(CC)no3)cn2)c1C | 777 |
| CCn1cc(C(=O)N[C@H](C(=O)O)C(C)C)c(=O)c2cc3c(cc21)OCO3 | 681 |
| O=C(NCCc1csc(-c2ccccc2)n1)c1cccs1 | 860 |
| Cc1nn(-c2ccccc2)c(C)c1S(=O)(=O)N1CCC(C(=O)Nc2ccccc2Cl)CC1 | 995 |
| CN1C(=O)CSc2cnn(CC(=O)N3CCCc4ccccc43)c(=O)c21 | 726 |
| CN(C)C(=O)c1cc2c(s1)CCC(C(=O)NCc1ccc(N3CCOCC3)cc1)C2 (configuration not stated) | 655 |
| Fc1cccc(-n2cc(-c3noc(-c4ccc5c(c4)OCO5)n3)nn2)c1 | 1010 |
